Bounds are passed on as bounds.

T1 sequence (P35968 786-1356): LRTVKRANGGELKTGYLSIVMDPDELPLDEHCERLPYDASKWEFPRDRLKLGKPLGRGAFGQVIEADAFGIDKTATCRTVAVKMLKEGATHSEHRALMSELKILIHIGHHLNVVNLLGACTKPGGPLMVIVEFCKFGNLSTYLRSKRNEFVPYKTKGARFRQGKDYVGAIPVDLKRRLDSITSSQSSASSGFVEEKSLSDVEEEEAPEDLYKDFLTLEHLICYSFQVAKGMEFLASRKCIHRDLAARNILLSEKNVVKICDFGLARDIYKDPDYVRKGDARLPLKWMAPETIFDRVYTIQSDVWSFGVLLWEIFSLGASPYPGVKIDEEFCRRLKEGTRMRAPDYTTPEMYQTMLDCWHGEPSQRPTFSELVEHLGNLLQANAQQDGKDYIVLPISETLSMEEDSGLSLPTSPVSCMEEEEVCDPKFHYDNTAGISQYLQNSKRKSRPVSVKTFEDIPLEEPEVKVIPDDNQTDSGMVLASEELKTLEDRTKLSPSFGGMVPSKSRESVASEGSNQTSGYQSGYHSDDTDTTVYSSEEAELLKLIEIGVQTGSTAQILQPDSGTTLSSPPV

The first assay deals with VEGF induced increases in intracellular calcium levels in HUVEC (human umbilical vein endothelial cells). In words: VEGF Stimulated Ca++ Signal in vitro (FLIPR). The assay is classed as cell-based. Conditions: 0.01 to 10.0 μM, VEGF 5 ng/mL. In outline: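 IC50 values derive from % inhibition of the VEGF (5 ng/mL) calcium response, taken as max-min fluorescence at 516 nm in Fluo-4-loaded HUVEC. Compounds (0.1% DMSO final) were added 30 min before stimulation, at 10 μM or across 0.01–10.0 μM.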
In the case of `O=C1Nc2ccccc2C1=CNc1ccc(OCCCN2CCC(F)C2)cc1` (stereo not drawn) [Example 305, 3-({4-[3-(3-Fluoro-pyrrolidin-1-yl)-propoxy]-phenylamino}-methylene)-1,3-dihydro-indol-2-one], the IC50 amounted to 0.55 µM.

Staying with this assay, now noted: Homo sapiens, 10 μM, VEGF 5 ng/mL.
Turning to `CCc1cccc(NC=C2C(=O)Nc3cccc(C)c32)c1` [Example 147, 3-[(3-Ethyl-phenylamino)-methylene]-4-methyl-1,3-dihydro-indol-2-one], the inhibition at 10 µM was determined as 71.6%.

The assay is the same for the next values; noted with them: Homo sapiens, 0.01 to 10.0 μM, VEGF 5 ng/mL.
With `CCc1cccc(NC=C2C(=O)Nc3cccc(C)c32)c1` [Example 147, 3-[(3-Ethyl-phenylamino)-methylene]-4-methyl-1,3-dihydro-indol-2-one], the IC50 was 5.49 µM.

On to `O=C1Nc2ccccc2C1=CNc1ccc(OCCCN2CCC(F)C2)cc1` (stereo not drawn) [Example 305, 3-({4-[3-(3-Fluoro-pyrrolidin-1-yl)-propoxy]-phenylamino}-methylene)-1,3-dihydro-indol-2-one], for which the IC50 was at most 1 µM.

Another assay has as its target T1, cytoplasmic domain of the human VEGF receptor (VEGFR-2) (Homo sapiens, UniProt P35968).
T1 construct: The cytoplasmic domain of the human VEGF receptor (VEGFR-2) was expressed as a Histidine-tagged fusion protein; Histidine tag
The experiment in a line: KDR Assay. Type of assay: biochemical. Particulars: His-VEGFR-2; 3.6 μM ATP. As for the experimental part:
The cytoplasmic domain of the human VEGF receptor (VEGFR-2) was expressed as a Histidine-tagged fusion protein following infection of insect cells using an engineered baculovirus. His-VEGFR-2 was purified to homogeneity, as determined by SDS-PAGE, using nickel resin chromatography. Kinase assays were performed in 96 well microtiter plates that were coated overnight with 30 μg of poly-Glu-Tyr (4:1) in 10 mM Phosphate Buffered Saline (PBS), pH 7.2-7.4. The plates were incubated with 1% BSA and then washed four times with PBS prior to starting the reaction. Reactions were carried out in 120 μL reaction volumes containing 3.6 μM ATP in kinase buffer (50 mM Hepes buffer pH 7.4, 20 mM MgCl2, 0.1 mM MnCl2 and 0.2 mM Na3VO4). Test compounds were reconstituted in 100% DMSO and added to the reaction to give a final DMSO concentration of 5%. Reactions were initiated by the addition 0.5 ng of purified protein. Following a ten minute incubation at 25° C., the reactions were washed four times with PBS containing 0.05% Tween-20. 100 μl of a monoclonal anti-phosphotyrosine antibody-peroxidase conjugate was diluted 1:10000 in PBS-Tween-20 and added to the wells for 30 minutes. Following four washes with PBS-Tween-20, 100 μl of O-phenylenediamine Dihydrochloride in Phosphate-citrate buffer, containing urea hydrogen peroxide, was added to the wells for 7 minutes as a colorimetric substrate for the peroxidase. The reaction was terminated by the addition of 100 μl of 2.5N H2SO4 to each well and read using a microplate ELISA reader set at 492 nm. IC50 values for compound inhibition were calculated directly from graphs of optical density (arbitrary units) versus compound concentration following subtraction of blank values.
Regarding `CCc1cccc(NC=C2C(=O)Nc3cccc(C)c32)c1` [Example 147, 3-[(3-Ethyl-phenylamino)-methylene]-4-methyl-1,3-dihydro-indol-2-one], the IC50 was found to be 0.15 µM.

As for `O=C1Nc2ccccc2C1=CNc1ccc(OCCCN2CCC(F)C2)cc1` (stereo not drawn) [Example 305, 3-({4-[3-(3-Fluoro-pyrrolidin-1-yl)-propoxy]-phenylamino}-methylene)-1,3-dihydro-indol-2-one], the midpoint of inhibition, the IC50, lay at 0.31 µM.

`O=C1Nc2cc(F)ccc2C1=CNc1ccc(NCCCN2CCOCC2)cc1` [Example 298, 6-Fluoro-3-{[4-(3-morpholin-4-yl-propylamino)-phenylamino]-methylene}-1,3-dihydro-indol-2-one] showed a half-inhibitory concentration (IC50) of 0.34 µM.

`Cc1cccc2c1C(=CNc1ccc(CCN3CCOCC3)cc1)C(=O)N2` [Example 308, 4-Methyl-3-{[4-(2-morpholin-4-yl-ethyl)-phenylamino]-methylene}-1,3-dihydro-indol-2-one] yielded a concentration for half-maximal inhibition (IC50) of 0.12 µM.

On to `O=C1Nc2ccc(Cl)cc2C1=CNc1ccc(NCCCN2CCOCC2)cc1` [Example 299, 5-Chloro-3-{[4-(3-morpholin-4-yl-propylamino)-phenylamino]-methylene}-1,3-dihydro-indol-2-one], for which the IC50 was found to be 0.14 µM.

Molecule `O=C1Nc2cc(F)ccc2C1=CNc1ccc(OCCN2CCCCC2)cc1` [Example 253, 6-Fluoro-3-{[4-(2-piperidin-1-yl-ethoxy)-phenylamino]-methylene}-1,3-dihydro-indol-2-one] came in with an IC50 of 0.17 µM.

Regarding `CN1CCCC(COc2ccc(NC=C3C(=O)Nc4cc(F)ccc43)cc2)C1` (stereo not drawn) [Example 279, 6-Fluoro-3-{[4-(1-methyl-piperidin-3-ylmethoxy)-phenylamino]-methylene}-1,3-dihydro-indol-2-one], the concentration for half-maximal inhibition (IC50) was 0.16 µM.

Turning to `O=C1Nc2ccc(F)cc2C1=CNc1ccc(OCCN2CCCC2)cc1` [Example 274, 5-Fluoro-3-{[4-(2-pyrrolidin-1-yl-ethoxy)-phenylamino]-methylene}-1,3-dihydro-indol-2-one], half-maximal inhibition (IC50) was put at 0.21 µM.

On to `Cc1cccc2c1C(=CNc1ccc(OCC3CCCN(C)C3)cc1)C(=O)N2` (stereo not drawn) [Example 278, 4-Methyl-3-{[4-(1-methyl-piperidin-3-ylmethoxy)-phenylamino]-methylene}-1,3-dihydro-indol-2-one], for which 0.08 µM corresponded to half-maximal inhibition (IC50).

Take `CN1CCCC(COc2ccc(NC=C3C(=O)Nc4ccccc43)cc2)C1` (stereo not drawn) [Example 280, 3-{[4-(1-Methyl-piperidin-3-ylmethoxy)-phenylamino]-methylene}-1,3-dihydro-indol-2-one]: the 50% inhibitory concentration (IC50) came to 0.46 µM.

For the molecule `Cc1cccc2c1C(=CNc1ccc(OCCN3CCCC3)cc1)C(=O)N2` [Example 270, 4-Methyl-3-{[4-(2-pyrrolidin-1-yl-ethoxy)-phenylamino]-methylene}-1,3-dihydro-indol-2-one], half-maximal inhibition (IC50) was put at 0.11 µM.

Take `O=C1Nc2ccccc2C1=CNc1ccc(OCCN2CCCC2)cc1` [Example 272, 3-{[4-(2-Pyrrolidin-1-yl-ethoxy)-phenylamino]-methylene}-1,3-dihydro-indol-2-one]: the concentration for half-maximal inhibition (IC50) turned out to be 0.46 µM.

As for `O=C1Nc2ccccc2C1=CNc1ccc(CCN2CCOCC2)cc1` [Example 306, 3-{[4-(2-Morpholin-4-yl-ethyl)-phenylamino]-methylene}-1,3-dihydro-indol-2-one], the midpoint of inhibition, the IC50, lay at 0.62 µM.

`O=C1Nc2ccccc2C1=CNc1ccc(CN2CCOCC2)cc1` [Example 290, 3-[(4-Morpholin-4-ylmethyl-phenylamino)-methylene]-1,3-dihydro-indol-2-one] gave an IC50 of 0.58 µM.

As to `CCN(CC)CCOc1ccc(NC=C2C(=O)Nc3cccc(C)c32)cc1` [Example 264, 3-{[4-(2-Diethylamino-ethoxy)-phenylamino]-methylene}-4-methyl-1,3-dihydro-indol-2-one], the IC50 was 0.07 µM.

`O=C1Nc2cc(F)ccc2C1=CNc1ccc(CN2CCOCC2)cc1` [Example 295, 6-Fluoro-3-[(4-morpholin-4-ylmethyl-phenylamino)-methylene]-1,3-dihydro-indol-2-one]: the IC50 was determined as 0.18 µM.

Consider `Cc1cccc2c1C(=CNc1ccc(NCCCN3CCOCC3)cc1)C(=O)N2` [Example 296, 4-Methyl-3-{[4-(3-morpholin-4-yl-propylamino)-phenylamino]-methylene}-1,3-dihydro-indol-2-one], for which it took 0.14 µM to reach half-maximal inhibition (IC50).

`O=C1Nc2ccc(F)cc2C1=CNc1ccc(OCCN2CCCCC2)cc1` [Example 263, 5-Fluoro-3-{[4-(2-piperidin-1-yl-ethoxy)-phenylamino]-methylene}-1,3-dihydro-indol-2-one]: half-maximal inhibition (IC50) required 0.36 µM.

As for `Cc1cccc2c1C(=CNc1ccc(CN3CCOCC3)cc1)C(=O)N2` [Example 292, 4-Methyl-3-[(4-morpholin-4-ylmethyl-phenylamino)-methylene]-1,3-dihydro-indol-2-one], the IC50 turned out to be 0.09 µM.

With `Cc1cccc2c1C(=CNc1ccc(CCN3CCCCC3)cc1)C(=O)N2` [Example 286, 4-Methyl-3-{[4-(2-piperidin-1-yl-ethyl)-phenylamino]-methylene}-1,3-dihydro-indol-2-one], the midpoint of inhibition, the IC50, lay at 0.04 µM.

The molecule `O=C1Nc2ccccc2C1=CNc1ccc(CCN2CCCCC2)cc1` [Example 284, 3-{[4-(2-Piperidin-1-yl-ethyl)-phenylamino]-methylene}-1,3-dihydro-indol-2-one] came in with an IC50 of 0.25 µM.

`Cc1cccc2c1C(=CNc1ccc(OCCCCN3CCCCC3)cc1)C(=O)N2` [Example 246, 4-Methyl-3-{[4-(4-piperidin-1-yl-butoxy)-phenylamino]-methylene}-1,3-dihydro-indol-2-one] yielded a 50% inhibitory concentration (IC50) of 0.09 µM.

`O=C1Nc2cc(F)ccc2C1=CNc1ccc(CCN2CCCCC2)cc1` [Example 289, 6-Fluoro-3-{[4-(2-piperidin-1-yl-ethyl)-phenylamino]-methylene}-1,3-dihydro-indol-2-one] displayed an IC50 of 0.26 µM.

Molecule `Cc1cccc2c1C(=CNc1ccc(OCCN3CCCCC3)cc1)C(=O)N2` [Example 252, 4-Methyl-3-{[4-(2-piperidin-1-yl-ethoxy)-phenylamino]-methylene}-1,3-dihydro-indol-2-one] registered a concentration for half-maximal inhibition (IC50) of 0.15 µM.

As to `O=C1Nc2ccccc2C1=CNc1ccc(OCCN2CCCCC2)cc1` [Example 254, 3-{[4-(2-Piperidin-1-yl-ethoxy)-phenylamino]-methylene}-1,3-dihydro-indol-2-one], the IC50 was determined as 0.5 µM.

In the case of `O=C1Nc2ccccc2C1=CNc1ccc(NCCCN2CCOCC2)cc1` [Example 297, 3-{[4-(3-Morpholin-4-yl-propylamino)-phenylamino]-methylene}-1,3-dihydro-indol-2-one], inhibition was half-maximal at 0.39 µM (IC50).

In turn, `O=C1Nc2ccc(F)cc2C1=CNc1ccc(CN2CCOCC2)cc1` [Example 294, 5-Fluoro-3-[(4-morpholin-4-ylmethyl-phenylamino)-methylene]-1,3-dihydro-indol-2-one] registered an IC50 of 0.38 µM.

Molecule `O=C1Nc2cc(F)ccc2C1=CNc1ccc(CN2CCCCC2)cc1` [Example 259, 6-Fluoro-3-[(4-piperidin-1-ylmethyl-phenylamino)-methylene]-1,3-dihydro-indol-2-one] yielded an IC50 of 0.3 µM.

`O=C1Nc2ccccc2C1=CNc1ccc(CN2CCCCC2)cc1` [Example 251, 3-[(4-Piperidin-1-ylmethyl-phenylamino)-methylene]-1,3-dihydro-indol-2-one] displayed an IC50 of 0.14 µM.

As to `O=C1Nc2cc(F)ccc2C1=CNc1ccc(CCN2CCOCC2)cc1` [Example 311, 6-Fluoro-3-{[4-(2-morpholin-4-yl-ethyl)-phenylamino]-methylene}-1,3-dihydro-indol-2-one], the IC50 is 0.1 µM.

Regarding `O=C1Nc2ccc(F)cc2C1=CNc1ccc(CCN2CCOCC2)cc1` [Example 310, 5-Fluoro-3-{[4-(2-morpholin-4-yl-ethyl)-phenylamino]-methylene}-1,3-dihydro-indol-2-one], the midpoint of inhibition, the IC50, lay at 0.23 µM.

The molecule `O=C1Nc2ccc(F)cc2C1=CNc1ccc(NCCCN2CCOCC2)cc1` [Example 300, 5-Fluoro-3-{[4-(3-morpholin-4-yl-propylamino)-phenylamino]-methylene}-1,3-dihydro-indol-2-one] displayed an IC50 of 0.42 µM.

One may read the IC50 as the point on the concentration scale where inhibition reaches its midpoint. As usually defined, the inhibition is the share of the control response that was lost under treatment.
